Results on 3 compounds are retold here after patent publication US20220080056A1, “DENDRIMER COMPOSITIONS AND USE IN TREATMENT OF NECROTIZING ENTEROCOLITIS AND OTHER GASTROINTESTINAL DISORDERS” (The Johns Hopkins University, priority 2015, published 2022).

The subject of data set [1] is TLR4-mediated inflammatory signaling. The conditions noted are these: SAR study of C34 analogs; cited from earlier work.
The next data set deals with T1, TLR4 co-receptor MD-2 (Homo sapiens, UniProt Q9Y6Y9).
T1 sequence (Q9Y6Y9 19-160): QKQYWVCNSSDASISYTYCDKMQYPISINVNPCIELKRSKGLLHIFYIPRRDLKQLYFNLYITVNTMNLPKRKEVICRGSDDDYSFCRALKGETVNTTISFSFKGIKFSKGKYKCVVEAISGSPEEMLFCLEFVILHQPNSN
The conditions noted are these: cited from earlier work.

The next data set relates to LPS signaling. The conditions noted are these: human ileum resected from infants with NEC; cited from earlier work.
For the next data set, the system named is TLR4. The conditions noted are these: enterocytes and macrophages in vitro; cited from earlier work.
The subject of another data set is systemic inflammation. To be noted: mouse models of endotoxemia and necrotizing enterocolitis; cited from earlier work.
The test system of the next data set is microglial cells. Nature of the data set: GSH depletion, ROS, H2O2 and NO/nitrite production. It is filed as cell-based. The conditions noted are these: highest concentration (5 mM). As for the experimental part:
(§1) Treatment with G4-PAMAM-S--S-NAC dendrimer complexes reduced white matter injury and microglia activation. […] This activity of the dendrimer-NAC conjugates may be attributed to its ability to interfere with the early inflammatory responses by blocking or modifying the signal transduction factor NF-.kappa.B and nitrotyrosine, thereby modulating cellular activation. 6 and 8 arm PEG-NAC conjugates released 74% of NAC in the intracellular GSH concentration (2 and 10 mM), within 2 hours. At a concentration range of between 0.008-0.8 mM, the conjugates were nontoxic to the microglial cells. […] At the highest concentration (5 mM), the free drug reduced the H2O2 levels and nitrite levels by 30-40%, whereas the conjugates reduced the H2O2 and nitrite levels by more than 70%. […] PEGylated NAC is a dendrimer complex with utility for the pharmaceutical industry, as PEGs are approved for human use and this device addresses limitations of NAC and provides greater efficacy.

For another data set, the system named is LPS-induced brain injury. Kind of data set: LPS-induced brain injury in a neonatal rabbit model of cerebral palsy. It is filed as in vivo. As for the experimental part: The therapeutic efficacy of G4-PAMAM-S--S-NAC dendrimer conjugate was evaluated after two days of animal treatment with lipopolysaccharide (LPS) to induce white matter injury and hypomyelination in the developing rabbit brain (an animal model of Cerebral Palsy). […] This supports a conclusion that the G4-PAMAM-S--S-NAC traversed across the BBB. The targeted delivery of NAC from dendrimer complex to actived microglial cells improved the motor deficits and attenuated recovery from the LPS-induced brain injury in a neonatal rabbit model of cerebral palsy.
as §1

The conditions of data set [2]: free drug; cited from earlier work.
The mark [3] stands for this setting: compared to kits treated with saline.

With `CC(=O)N[C@H]1[C@@H](OC(C)C)O[C@H](CO)[C@H](O)[C@@H]1O` [compound 17, isopropyl 2-acetamido-α-galactoside], the “efficacy relative to C34 series” value in data set [1] is listed as “more efficacious”.

On to `CC(=O)N[C@H]1[C@@H](OC(C)C)O[C@H](COC(C)=O)[C@@H](OC(C)=O)[C@@H]1OC(C)=O` [C34], for which the “docking fit to hydrophobic internal pocket of MD-2” value on TLR4 co-receptor MD-2 is given as “tight fit”. In addition, the LPS signaling ex-vivo result in the data set with LPS signaling is recorded as “inhibited”. The TLR4 inhibition result in the data set with TLR4 was “inhibits”. Also, the systemic inflammation result in the data set on systemic inflammation is listed as “reduces”.

Consider `CC(=O)N[C@@H](CS)C(=O)O` [NAC, N-acetyl cysteine], for which, in the data set with microglial cells, the “reduction of H2O2 levels” value is given as 30-40% and the “reduction of nitrite levels” value is reported as 30-40%. Further, the “dose eliciting identical responses” value in the data set with LPS-induced brain injury (LPS-induced brain injury) turned out to be 100 mg/kg. In the data set with LPS-induced brain injury (setting [3]), the fetal inflammation response entry was “decrease” and the motor deficits result is “improvement”. In data set [2], the bioavailability entry is listed as “low” and the plasma protein binding result is recorded as “very high”.
